The target in assay [1] is Neuropeptide Y receptor type 2 (Homo sapiens, UniProt P49146). Put plainly: Fluorescence-based counterscreen for agonists of NPY-Y1: cell-based high-throughput dose response assay for agonists of NPY-Y2. It is filed as functional. (The purpose of a counterscreen is to sort out artefacts and off-target activity.)
Assay [2] addresses Neuropeptide Y receptor type 1 (Homo sapiens, UniProt P25929). The assay can be described thus: Fluorescence-based dose response cell-based high-throughput screening assay for agonists of NPY-Y1. [Related pubchem assays: 1697 (Screening assay (NPY-Y1 agonists).), 1359 (Screening assay (NPY-Y2 potentiators or agonists).), 1304 (Screening assay (NPY-Y1 potentiators or agonists).), 1704 (Screening assay (CNGC inhibitors).), 1791 (Summary AID.)]. In kind it is functional.

Assay [3] concerns HEK293. Put plainly: Fluorescence-based counterscreen for potentiators or agonists of NPY-Y1: cell-based high-throughput dose response assay for inhibitors of cyclic nucleotide gated ion channel (CNGC) activity. In this assay, the parental HEK293 cell line transfected with a cyclic-nucleotide gated ion channel (CNGC)-based cAMP sensor is used to measure inhibition of isoproterenol-induced CNGC …. It is filed as functional. The conditions noted are these: Homo sapiens.

Assay [4] addresses Protein phosphatase methylesterase 1 (Homo sapiens, UniProt Q9Y570). Put plainly: PME-1 inhibitor potency by in-gel ABPP, dose response, selectivity assay for PME-1 inhibitor project, cell lysate, mouse brain cytosol, FP-rhodamine, panel member PME-1 Assay Panel member description: Inhibition of endogenously expressed PME-1 (AID 2366).
A further assay addresses Aspartyl aminopeptidase (Plasmodium falciparum 3D7, UniProt Q8I2J3).
In a further assay the target is T1, Leucine aminopeptidase (Plasmodium falciparum 3D7, UniProt Q8IL11).
T1 sequence (Q8IL11 whole entry): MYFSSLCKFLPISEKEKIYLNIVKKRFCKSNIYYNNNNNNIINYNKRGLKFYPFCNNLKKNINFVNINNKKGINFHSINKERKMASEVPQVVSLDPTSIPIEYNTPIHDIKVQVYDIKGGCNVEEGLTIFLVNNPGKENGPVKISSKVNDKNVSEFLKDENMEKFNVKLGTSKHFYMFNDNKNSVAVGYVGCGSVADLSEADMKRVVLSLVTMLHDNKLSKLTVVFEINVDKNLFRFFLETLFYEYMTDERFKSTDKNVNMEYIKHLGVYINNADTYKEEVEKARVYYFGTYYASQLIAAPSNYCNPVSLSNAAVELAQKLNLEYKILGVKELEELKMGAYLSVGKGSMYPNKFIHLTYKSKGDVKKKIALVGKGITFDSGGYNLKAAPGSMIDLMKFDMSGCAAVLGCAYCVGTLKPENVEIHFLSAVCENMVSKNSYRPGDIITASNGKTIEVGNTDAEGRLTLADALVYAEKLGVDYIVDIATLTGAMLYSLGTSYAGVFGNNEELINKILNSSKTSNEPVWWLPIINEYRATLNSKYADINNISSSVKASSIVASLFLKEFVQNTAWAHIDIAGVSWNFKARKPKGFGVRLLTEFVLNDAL
Put plainly: P. falciparum M17LAP inhibitors, primary screen, biochemical, fluorogenic H-Leu-NHMec substrate, 1536-well (AID 1619). It is filed as functional.

Another assay has as its target Procathepsin L (Homo sapiens, UniProt P07711).
Assay [5] concerns the target Melanin-concentrating hormone receptor 1 (Homo sapiens, UniProt Q99705). The assay can be described thus: Fluorescence-based counterscreen for antagonists of the G-protein coupled receptor 7 (GPR7): cell-based high throughput dose response assay to identify antagonists of the melanin-concentrating hormone receptor 1 (MCHR1). It is filed as functional.
Assay [6] concerns the target T2, Eukaryotic translation initiation factor 2-alpha kinase 3 (Homo sapiens, UniProt Q9NZJ5). Put plainly: Dose response cell-based high-throughput screening assay to measure PERK inhibition. [Related pubchem assays: 1416 ]. In kind it is functional.
In assay [7] the target is T2, Eukaryotic translation initiation factor 2-alpha kinase 3. The assay can be described thus: Counterscreen assay for PERK inhibitors: Dose response cell-based high throughput screening assay to measure inhibition of PERK at 6 hours. [Related pubchem assays: 1522, 1416 ]. In kind it is functional.
For assay [8], the target named is T3, DNA repair protein RAD52 homolog (Homo sapiens, UniProt P43351).
T3 sequence (P43351 whole entry): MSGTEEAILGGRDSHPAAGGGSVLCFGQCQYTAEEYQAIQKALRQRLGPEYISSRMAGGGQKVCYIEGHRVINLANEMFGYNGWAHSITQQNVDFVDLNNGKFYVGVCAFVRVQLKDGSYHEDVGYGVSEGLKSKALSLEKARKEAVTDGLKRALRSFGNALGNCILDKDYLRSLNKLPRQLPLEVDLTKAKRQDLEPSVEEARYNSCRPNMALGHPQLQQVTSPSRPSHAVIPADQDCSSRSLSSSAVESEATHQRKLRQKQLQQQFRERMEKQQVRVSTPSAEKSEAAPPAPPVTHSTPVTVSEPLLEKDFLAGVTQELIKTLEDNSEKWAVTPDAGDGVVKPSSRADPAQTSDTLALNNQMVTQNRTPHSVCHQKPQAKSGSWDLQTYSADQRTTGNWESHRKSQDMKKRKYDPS
It is filed as functional, biochemical.

A further assay has as its system Vero. Put plainly: host cell cytotoxicity of antiviral hits, dose response, cytotoxicity control for West Nile virus antiviral project, secondary assay (AID 1650). Particulars: Chlorocebus sabaeus. It is filed as functional.
For assay [9], the target named is T4, DNA repair and recombination protein RAD54-like (Homo sapiens, UniProt Q92698).
T4 sequence (Q92698 whole entry): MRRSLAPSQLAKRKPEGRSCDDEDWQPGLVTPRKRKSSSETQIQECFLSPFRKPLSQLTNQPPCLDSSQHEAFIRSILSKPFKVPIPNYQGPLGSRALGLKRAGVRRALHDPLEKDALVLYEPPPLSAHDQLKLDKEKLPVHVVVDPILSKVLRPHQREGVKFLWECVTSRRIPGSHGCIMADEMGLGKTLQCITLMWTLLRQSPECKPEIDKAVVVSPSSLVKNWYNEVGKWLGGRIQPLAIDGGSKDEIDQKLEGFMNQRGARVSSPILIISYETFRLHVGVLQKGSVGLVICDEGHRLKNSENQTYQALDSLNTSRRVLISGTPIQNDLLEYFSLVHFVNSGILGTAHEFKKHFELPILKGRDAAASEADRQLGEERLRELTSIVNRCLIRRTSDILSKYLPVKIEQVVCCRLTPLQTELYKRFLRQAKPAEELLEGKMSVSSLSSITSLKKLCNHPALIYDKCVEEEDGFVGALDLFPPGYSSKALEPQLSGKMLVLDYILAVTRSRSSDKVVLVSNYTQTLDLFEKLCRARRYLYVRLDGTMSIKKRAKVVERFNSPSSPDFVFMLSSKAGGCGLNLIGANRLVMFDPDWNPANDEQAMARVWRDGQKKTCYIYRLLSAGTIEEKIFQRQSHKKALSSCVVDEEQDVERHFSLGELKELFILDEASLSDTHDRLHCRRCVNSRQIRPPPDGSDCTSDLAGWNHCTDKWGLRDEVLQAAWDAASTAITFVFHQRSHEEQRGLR
The assay can be described thus: inhibitors of human RAD54 branch migration, confirmation, biochemical, fluorescence, cherry-picked samples, dose series (AID 651657). It is filed as functional.

For assay [10], the target named is Protein Rev (Human immunodeficiency virus type 1 group M subtype B (isolate WMJ22)(HIV-1), UniProt P05866). Put plainly: HIV-1 Rev-RRE RNA binding disruptors, dose response, biochemical, protein-RNA interaction (AID 842). The arrangement: species or system Human immunodeficiency virus 1.
Sequence of Protein Rev (Human immunodeficiency virus type 1 group M subtype B (isolate WMJ22)(HIV-1), UniProt P05866) (P05866 whole entry): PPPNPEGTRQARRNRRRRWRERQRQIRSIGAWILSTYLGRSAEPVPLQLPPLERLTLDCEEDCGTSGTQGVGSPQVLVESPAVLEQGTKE
In assay [11] the target is T5, Short transient receptor potential channel 4 (Mus musculus, UniProt Q9QUQ5).
T5 sequence (Q9QUQ5 whole entry): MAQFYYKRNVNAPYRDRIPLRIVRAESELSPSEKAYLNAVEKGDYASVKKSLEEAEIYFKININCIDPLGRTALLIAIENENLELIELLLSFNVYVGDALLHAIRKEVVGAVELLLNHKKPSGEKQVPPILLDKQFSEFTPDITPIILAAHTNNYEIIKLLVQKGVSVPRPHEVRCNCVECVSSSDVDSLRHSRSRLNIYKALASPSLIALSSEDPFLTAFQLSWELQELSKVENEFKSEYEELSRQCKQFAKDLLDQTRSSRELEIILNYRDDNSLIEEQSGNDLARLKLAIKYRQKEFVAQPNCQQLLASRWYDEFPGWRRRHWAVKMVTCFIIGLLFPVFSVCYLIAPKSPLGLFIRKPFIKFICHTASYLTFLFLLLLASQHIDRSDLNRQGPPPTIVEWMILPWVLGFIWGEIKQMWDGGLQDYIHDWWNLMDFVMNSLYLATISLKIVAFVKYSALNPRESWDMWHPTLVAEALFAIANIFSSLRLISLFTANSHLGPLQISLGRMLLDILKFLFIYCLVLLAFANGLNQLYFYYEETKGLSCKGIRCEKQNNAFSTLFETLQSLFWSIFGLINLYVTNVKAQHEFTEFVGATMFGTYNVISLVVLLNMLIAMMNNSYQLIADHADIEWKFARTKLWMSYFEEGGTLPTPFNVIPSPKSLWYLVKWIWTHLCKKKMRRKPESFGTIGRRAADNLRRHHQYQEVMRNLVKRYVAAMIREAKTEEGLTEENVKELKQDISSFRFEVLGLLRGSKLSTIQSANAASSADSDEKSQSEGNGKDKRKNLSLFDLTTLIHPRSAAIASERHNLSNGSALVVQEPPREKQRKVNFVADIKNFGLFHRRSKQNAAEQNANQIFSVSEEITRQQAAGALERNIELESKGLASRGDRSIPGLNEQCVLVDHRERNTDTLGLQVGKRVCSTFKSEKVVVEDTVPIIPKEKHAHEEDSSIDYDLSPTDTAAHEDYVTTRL
The assay can be described thus: mouse TRPC4 channel inhibitors, dose response, cell-based, HEK293 TRPC4/mu-opioid, Fluo-4 calcium (AID 434942).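 Further: potency of inhibitors blocking the TRPC4 calcium response.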 It is filed as functional.

The subject of assay [12] is HEK293. Put plainly: cells. Particulars: Homo sapiens.
In the next assay the target is Tumor necrosis factor (Homo sapiens, UniProt P01375). Put plainly: TNFa-triggered NF-kB activation inhibitors, SAR follow-up, cell-based, revised (AID 2337). In kind it is functional.
Sequence of Tumor necrosis factor (P01375 whole entry, the tested form may be a part): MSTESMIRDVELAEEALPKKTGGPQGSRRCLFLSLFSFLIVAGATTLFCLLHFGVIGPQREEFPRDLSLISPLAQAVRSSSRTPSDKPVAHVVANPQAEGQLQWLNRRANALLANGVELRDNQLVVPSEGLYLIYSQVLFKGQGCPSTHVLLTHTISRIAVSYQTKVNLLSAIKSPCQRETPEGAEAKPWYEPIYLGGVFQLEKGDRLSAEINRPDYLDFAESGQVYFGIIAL
In assay [13] the target is Nucleotide-binding oligomerization domain-containing protein 2 (Homo sapiens, UniProt Q9HC29). Put plainly: PubChem AID 2334. It is filed as functional.
Sequence of Nucleotide-binding oligomerization domain-containing protein 2 (Q9HC29 whole entry, the tested form may be a part): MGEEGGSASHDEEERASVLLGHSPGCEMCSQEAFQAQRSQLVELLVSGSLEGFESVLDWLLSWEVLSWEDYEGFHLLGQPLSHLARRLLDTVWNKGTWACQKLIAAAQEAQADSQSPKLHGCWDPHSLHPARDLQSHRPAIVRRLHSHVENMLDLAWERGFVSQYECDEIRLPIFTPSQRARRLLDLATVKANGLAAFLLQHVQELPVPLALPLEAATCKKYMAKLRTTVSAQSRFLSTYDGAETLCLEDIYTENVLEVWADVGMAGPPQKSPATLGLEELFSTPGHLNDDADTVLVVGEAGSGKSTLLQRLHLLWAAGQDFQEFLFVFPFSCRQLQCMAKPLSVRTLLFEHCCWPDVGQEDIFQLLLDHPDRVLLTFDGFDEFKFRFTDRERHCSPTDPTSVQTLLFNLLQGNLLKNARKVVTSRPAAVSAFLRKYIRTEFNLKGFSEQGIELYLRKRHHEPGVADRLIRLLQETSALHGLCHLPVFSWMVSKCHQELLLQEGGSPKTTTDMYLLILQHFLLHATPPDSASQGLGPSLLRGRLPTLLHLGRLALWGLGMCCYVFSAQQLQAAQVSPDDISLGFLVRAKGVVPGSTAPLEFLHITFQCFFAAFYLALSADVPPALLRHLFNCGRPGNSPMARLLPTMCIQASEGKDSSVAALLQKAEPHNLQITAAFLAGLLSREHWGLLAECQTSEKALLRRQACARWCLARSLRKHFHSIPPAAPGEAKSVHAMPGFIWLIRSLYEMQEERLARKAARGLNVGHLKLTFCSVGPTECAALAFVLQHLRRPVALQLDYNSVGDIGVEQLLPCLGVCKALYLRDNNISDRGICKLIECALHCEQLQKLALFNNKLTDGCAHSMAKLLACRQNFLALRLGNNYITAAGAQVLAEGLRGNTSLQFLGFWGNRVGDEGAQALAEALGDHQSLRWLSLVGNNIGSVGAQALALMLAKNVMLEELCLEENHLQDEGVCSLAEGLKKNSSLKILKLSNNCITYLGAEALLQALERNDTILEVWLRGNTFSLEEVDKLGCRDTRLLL
Assay [14] deals with Nucleotide-binding oligomerization domain-containing protein 1 (Homo sapiens, UniProt Q9Y239). Put plainly: NOD1 signaling inhibitors, SAR follow-up, revised (AID 2333). It is filed as functional.
In another assay the target is Bcl-2-like protein 10 (Homo sapiens, UniProt Q9HD36). Put plainly: displacers of TR3 peptide from Bcl-B, primary screen, selectivity assay for Bfl-1 inhibitor project, biochemical, fluorescence polarization, FITC-TR3 peptide (AID 748). (Polarisation of emitted light reports the rotation of a fluorescent probe.);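 further: fluorescence polarization from a fluorescein-labelled TR3 peptide binding purified Bcl-B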
Sequence of Bcl-2-like protein 10 (Q9HD36 whole entry): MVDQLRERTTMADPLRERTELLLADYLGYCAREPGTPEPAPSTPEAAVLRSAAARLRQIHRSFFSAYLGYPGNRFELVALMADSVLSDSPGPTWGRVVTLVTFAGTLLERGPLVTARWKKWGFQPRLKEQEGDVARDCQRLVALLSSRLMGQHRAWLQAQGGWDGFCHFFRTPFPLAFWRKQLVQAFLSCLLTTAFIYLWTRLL
The target in assay [15] is Protein Rev (Human immunodeficiency virus type 1 group M subtype B (isolate HXB2)(HIV-1), UniProt P04618). Put plainly: inhibitors of Rev binding to RRE RNA, dose response, biochemical, fluorescence polarization, HIV-1 (AID 434976). The arrangement: species or system Human immunodeficiency virus 1.
For assay [16], the target named is Female germline-specific tumor suppressor gld-1 (Caenorhabditis elegans, UniProt Q17339). The assay can be described thus: inhibitors of GLD-1 binding to TGE RNA, dose response, biochemical, fluorescence polarization, C. elegans (AID 2802).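 Further: fluorescence polarization of labeled TGE RNA bound by purified gld-1 protein.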
Sequence of Female germline-specific tumor suppressor gld-1 (Q17339 whole entry): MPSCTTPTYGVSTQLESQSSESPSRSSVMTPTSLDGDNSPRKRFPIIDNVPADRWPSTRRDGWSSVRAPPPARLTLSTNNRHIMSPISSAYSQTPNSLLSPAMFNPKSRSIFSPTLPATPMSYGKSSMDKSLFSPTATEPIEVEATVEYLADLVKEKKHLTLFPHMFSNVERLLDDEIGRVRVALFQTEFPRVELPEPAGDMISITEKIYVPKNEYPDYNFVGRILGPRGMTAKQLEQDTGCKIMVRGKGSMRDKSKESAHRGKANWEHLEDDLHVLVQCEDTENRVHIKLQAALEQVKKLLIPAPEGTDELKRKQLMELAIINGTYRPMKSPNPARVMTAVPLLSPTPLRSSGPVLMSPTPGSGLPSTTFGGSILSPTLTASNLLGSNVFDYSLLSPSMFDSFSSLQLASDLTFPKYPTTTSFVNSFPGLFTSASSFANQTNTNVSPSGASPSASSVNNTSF
Assay [17] has as its target T6, Polyadenylate-binding protein 1 (Homo sapiens, UniProt P11940). Put plainly: PABP1 MLLE–PAM2 binding inhibitor potency, dose response, biochemical, fluorescence polarization, FITC-PAM2 peptide (AID 602259). In kind it is functional. The conditions noted are these: read-out: IC50_Mean.
In assay [18] the target is T6, Polyadenylate-binding protein 1. The assay can be described thus: PABP1 MLLE–PAM2 interaction inhibitors, dose response, miRNA deadenylation inhibitor project, biochemical, fluorescence polarization, Cy5-PAM2 peptide, secondary (AID 602260). The conditions noted are these: read-out: IC50_Mean. In kind it is functional.

The term EC50 denotes the concentration at which the effect is half-maximal. In general, AC50 refers to the midpoint of the concentration-response curve, whichever way the signal moves. Usually CC50 stands for the concentration giving 50% cytotoxicity.

The structures appear in SMILES notation. The source made the active and inactive calls.

T2 sequence (Q9NZJ5 whole entry): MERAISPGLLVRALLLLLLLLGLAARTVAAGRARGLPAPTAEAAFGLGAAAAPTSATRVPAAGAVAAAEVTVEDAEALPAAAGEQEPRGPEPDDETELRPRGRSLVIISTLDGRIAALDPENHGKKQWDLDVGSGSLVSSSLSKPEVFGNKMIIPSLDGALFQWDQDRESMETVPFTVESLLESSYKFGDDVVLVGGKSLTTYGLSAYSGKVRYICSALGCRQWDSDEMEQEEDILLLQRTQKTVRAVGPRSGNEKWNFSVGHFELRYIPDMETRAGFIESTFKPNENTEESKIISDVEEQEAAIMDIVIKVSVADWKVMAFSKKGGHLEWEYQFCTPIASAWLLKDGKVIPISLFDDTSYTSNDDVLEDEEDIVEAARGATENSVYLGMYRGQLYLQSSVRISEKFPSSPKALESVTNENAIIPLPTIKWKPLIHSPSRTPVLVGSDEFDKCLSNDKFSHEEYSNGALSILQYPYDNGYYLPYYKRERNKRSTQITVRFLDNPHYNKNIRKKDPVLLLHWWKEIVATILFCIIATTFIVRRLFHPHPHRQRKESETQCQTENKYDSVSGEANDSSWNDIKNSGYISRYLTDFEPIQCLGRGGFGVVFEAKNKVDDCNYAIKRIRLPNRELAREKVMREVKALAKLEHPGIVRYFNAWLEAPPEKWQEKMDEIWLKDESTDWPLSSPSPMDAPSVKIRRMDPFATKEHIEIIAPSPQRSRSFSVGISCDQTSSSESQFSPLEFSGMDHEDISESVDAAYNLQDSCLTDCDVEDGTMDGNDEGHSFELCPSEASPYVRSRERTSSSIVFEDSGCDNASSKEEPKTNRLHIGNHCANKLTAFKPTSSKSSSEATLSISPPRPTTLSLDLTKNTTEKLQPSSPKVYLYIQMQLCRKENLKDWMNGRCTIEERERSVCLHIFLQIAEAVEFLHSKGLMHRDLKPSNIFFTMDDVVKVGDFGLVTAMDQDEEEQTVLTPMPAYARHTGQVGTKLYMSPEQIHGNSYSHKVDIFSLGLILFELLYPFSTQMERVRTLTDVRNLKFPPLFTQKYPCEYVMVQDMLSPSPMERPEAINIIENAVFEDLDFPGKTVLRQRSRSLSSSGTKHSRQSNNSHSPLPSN
T6 sequence (P11940 whole entry): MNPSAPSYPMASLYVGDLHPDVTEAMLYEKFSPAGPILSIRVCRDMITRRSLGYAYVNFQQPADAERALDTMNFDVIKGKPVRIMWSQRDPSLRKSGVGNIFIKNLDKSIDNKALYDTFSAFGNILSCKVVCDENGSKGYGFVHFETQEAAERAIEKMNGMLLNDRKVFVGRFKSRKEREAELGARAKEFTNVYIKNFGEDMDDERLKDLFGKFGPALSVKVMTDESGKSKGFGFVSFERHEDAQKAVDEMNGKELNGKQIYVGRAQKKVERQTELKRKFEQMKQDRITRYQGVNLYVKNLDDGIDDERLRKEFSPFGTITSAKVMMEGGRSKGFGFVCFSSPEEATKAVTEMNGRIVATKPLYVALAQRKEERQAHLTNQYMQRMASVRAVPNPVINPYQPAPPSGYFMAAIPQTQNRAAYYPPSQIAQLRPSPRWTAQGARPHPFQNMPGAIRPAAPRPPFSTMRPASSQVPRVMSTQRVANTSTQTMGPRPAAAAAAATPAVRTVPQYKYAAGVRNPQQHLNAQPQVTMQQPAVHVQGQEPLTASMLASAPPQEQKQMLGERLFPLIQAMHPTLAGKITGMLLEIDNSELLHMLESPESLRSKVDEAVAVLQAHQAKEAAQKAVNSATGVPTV
Sequence of Neuropeptide Y receptor type 2 (P49146 whole entry): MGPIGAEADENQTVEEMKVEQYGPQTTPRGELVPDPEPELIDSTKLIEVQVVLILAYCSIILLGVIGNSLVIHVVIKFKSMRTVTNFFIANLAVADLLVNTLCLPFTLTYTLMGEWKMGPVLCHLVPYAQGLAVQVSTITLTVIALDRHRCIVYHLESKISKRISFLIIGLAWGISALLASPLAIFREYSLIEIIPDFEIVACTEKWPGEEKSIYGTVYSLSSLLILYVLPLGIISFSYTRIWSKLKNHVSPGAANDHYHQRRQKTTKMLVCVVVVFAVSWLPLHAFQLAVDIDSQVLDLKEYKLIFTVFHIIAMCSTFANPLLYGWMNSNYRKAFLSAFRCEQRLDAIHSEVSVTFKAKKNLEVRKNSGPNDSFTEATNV
Sequence of Protein phosphatase methylesterase 1 (Q9Y570 whole entry): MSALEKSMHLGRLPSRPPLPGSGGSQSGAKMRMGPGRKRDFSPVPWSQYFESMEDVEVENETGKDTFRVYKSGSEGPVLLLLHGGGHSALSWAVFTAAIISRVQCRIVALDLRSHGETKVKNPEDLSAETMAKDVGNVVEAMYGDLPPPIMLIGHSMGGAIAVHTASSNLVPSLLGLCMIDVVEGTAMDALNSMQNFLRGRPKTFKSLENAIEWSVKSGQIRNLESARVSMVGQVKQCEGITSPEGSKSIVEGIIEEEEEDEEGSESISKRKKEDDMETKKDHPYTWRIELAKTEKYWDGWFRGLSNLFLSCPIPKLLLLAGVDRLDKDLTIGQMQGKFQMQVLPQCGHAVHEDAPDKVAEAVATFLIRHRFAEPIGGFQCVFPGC
Sequence of Neuropeptide Y receptor type 1 (P25929 whole entry): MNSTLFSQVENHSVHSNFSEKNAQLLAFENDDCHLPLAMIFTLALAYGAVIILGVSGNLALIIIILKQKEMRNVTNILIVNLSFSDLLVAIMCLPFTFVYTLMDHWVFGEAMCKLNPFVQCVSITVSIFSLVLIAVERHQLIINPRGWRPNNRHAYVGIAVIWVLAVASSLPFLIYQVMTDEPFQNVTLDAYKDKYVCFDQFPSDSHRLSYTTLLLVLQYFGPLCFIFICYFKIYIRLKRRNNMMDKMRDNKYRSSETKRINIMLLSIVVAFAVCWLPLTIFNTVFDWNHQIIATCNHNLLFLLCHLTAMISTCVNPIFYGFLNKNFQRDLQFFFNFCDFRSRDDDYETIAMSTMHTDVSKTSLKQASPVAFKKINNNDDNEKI

With `CCC(C)C1C(C#N)=C(N)Oc2[nH]nc(-c3ccccc3)c21` (centres undefined), the EC50 in assay [1] and in [2] was > 35.4 µM (not active) in each case. Further, in the assay with HEK293 [3], the IC50 is listed as 25 µM (not active).
Consider `CS(=O)(=O)/C(C#N)=C/c1cccn1S(=O)(=O)c1cccc2ccccc12`, for which the IC50 in [4] was > 20 µM (inactive).
Turning to `O=C(CSc1nc[nH]n1)Nc1ccc([N+](=O)[O-])cc1Br`, the IC50 is 0.975 µM (active) at Aspartyl aminopeptidase, 19.9 µM (active) on Leucine aminopeptidase and > 59.6 µM (not active) against Procathepsin L.
With `CCN(CC)CCNC(=O)CCc1c(C)nc2c(c(C)nn2-c2ccc(C)cc2)c1C`, in [5], the IC50 is recorded as 11.2 µM (not active).
Regarding `Cn1c(=O)c2c(SCc3ccccc3)nc(-c3ccco3)nc2n(C)c1=O`, the EC50 in assay [6] and in assay [7] was > 55.7 µM (not active) each time.
Turning to `CCc1ccc2nc3nc(C)cc(C)c3c(N)c2c1`, the AC50 was 3.58 µM (active) in [8] and 9.59 µM (active) in assay [9]. In addition, the CC50 in the assay with Vero was 21.6 µM (active). At Protein Rev [10], the IC50 is 58.8 µM (not active). The EC50 in assay [11] is 3.35 µM (active).
For the compound `CCOC(=O)c1c(NC(=O)CN2CCOCC2)sc2c1CC(C)(C)OC2`, the IC50 (in the assay on HEK293 [12]; on Tumor necrosis factor; in [13]; in [14]) was > 20 µM (inactive) in each case.
Consider `O=C(C[n+]1ccc(C(=O)NN=Cc2ccc(O)cc2)cc1)c1ccccc1`, for which the IC50 on Bcl-2-like protein 10 is 70.4 µM (inactive).
On to `Nc1nnnn1/N=C/c1cc(Cl)ccc1O`, for which the IC50 on Protein Rev [15] is > 75.3 µM (not active); in assay [16] it was 6.2 µM (active); in assay [17], 38.8 µM (inactive); in assay [18], 35.1 µM (inactive).

For the origin of these results see ChEMBL document CHEMBL1201862, “PubChem BioAssay data set” (2004).
